Common to all, as to test: normalised viability (% of control), CellTiter-Blue; higher = more viable cells (about 100 = DMSO control)
What all share (details): incubation time: 72 h

The subject of assay [1] is HDQ-P1. How it is done: (§1)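 DSRT, CellTiter-Blue viability, 72 h incubation. Signal is normalised to DMSO and benzethonium chloride controls. Value is the normalised response at dose 7.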
Assay [2] concerns DU-4475. How it is done: as §1
The test system of assay [3] is CAL-51. How it is done:
as §1

Assay [4] deals with CAL-148. How it is done:
as §1

Assay [5] concerns MDA-MB-453. On the procedure: as §1
Assay [6] deals with CAL-85-1. How it is done: as §1
Assay [7] deals with HDQ-P1. How it is done:
(§2)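 DSRT, CellTiter-Blue viability, 72 h incubation. Signal is normalised to DMSO and benzethonium chloride controls. Value is the normalised response at dose 9.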
This is another data set of the same source.

Assay [8] has as its system DU-4475. How it is done: as §2
The source holds these as a separate data set.

Assay [9] relates to CAL-51. On the procedure: as §2
The source holds these as a separate data set.

Assay [10] has as its system CAL-148. How it is done:
as §2
This is another data set of the same source.

In assay [11] the test system is MDA-MB-453. How it is done:
as §2
This is another data set of the same source.

Assay [12] deals with CAL-85-1. How it is done: as §2
This is another data set of the same source.

Molecules are shown by their SMILES.

`COc1ncc(-c2ccc3nccc(-c4ccnnc4)c3c2)cc1NS(=O)(=O)c1ccc(F)cc1F` (100 nM): the normalised viability in [1] came to 22.3%; in [2] it was 61.5%; in [3], 17.2%; in assay [4], 25%; in [5] it was 7.68%; in [6] it was 30.5%.

As to `COc1ncc(-c2ccc3nccc(-c4ccnnc4)c3c2)cc1NS(=O)(=O)c1ccc(F)cc1F` (1000 nM), the normalised viability in assay [7] stood at 14.4%; in assay [8], 10.2%; in assay [9], 3.63%; in [10], 2.42%; in [11], 5.04%; in assay [12] it was 18.6%.

Consider `C[C@@]1(C(=O)Nc2ccc(F)nc2)CCCN1c1nc(Nc2cc(C3CC3)n[nH]2)c2cccn2n1` (1000 nM), for which the normalised viability in assay [1] amounted to 32.3%; in assay [2] it was 78.6%; in assay [3], 63.4%; in [4] it was 79.6%; in assay [5], 56.6%; in assay [6] it was 49.4%.

`C[C@@]1(C(=O)Nc2ccc(F)nc2)CCCN1c1nc(Nc2cc(C3CC3)n[nH]2)c2cccn2n1` (10000 nM): the normalised viability in assay [7] came to 7.47%; in assay [8], 3.48%; in assay [9], 6.06%; in assay [10], 49.1%; in assay [11] it was 75.3%; in assay [12], 30.6%.

Turning to `COc1c(C)cnc(Cn2cnc3c(Cl)nc(N)nc32)c1C` [BIIB021] (1000 nM), the normalised viability stood at 46.8% in [1]; 0.09% in [2]; 26.1% in [3]; 14.6% in assay [4]; 6.04% in [5]; 33.4% in [6].

`COc1c(C)cnc(Cn2cnc3c(Cl)nc(N)nc32)c1C` [BIIB021] (10000 nM): the normalised viability in assay [7] is 30.4%; in assay [8], -0.63%; in assay [9], 9.69%; in assay [10] it was 15.7%; in assay [11], 4.83%; in [12], 21.7%.

Turning to `CC(C)C[C@H](NC(=O)[C@H](Cc1ccccc1)NC(=O)c1cnccn1)B(O)O` [Bortezomib] (100 nM), the normalised viability came to 1.22% in assay [1]; 2.48% in assay [2]; 2.63% in assay [3]; 18.2% in [4]; 19.4% in [5]; 5.3% in assay [6].

For the molecule `CC(C)C[C@H](NC(=O)[C@H](Cc1ccccc1)NC(=O)c1cnccn1)B(O)O` [Bortezomib] (1000 nM), the normalised viability in assay [7] was -1.16%; in assay [8] it was 0.03%; in [9], 1.02%; in assay [10], 0.38%; in [11], 11.1%; in assay [12], 2.28%.

As for `CS(=O)(=O)OCCCCOS(C)(=O)=O` [Busulfan] (10000 nM), the normalised viability in assay [1] turned out to be 88.2%; in assay [2] it was 103%; in assay [3], 85.6%; in assay [4] it was 120%; in assay [5], 104%; in [6], 108%.

Consider `CS(=O)(=O)OCCCCOS(C)(=O)=O` [Busulfan] (100000 nM), for which the normalised viability was 109% in assay [7]; 89% in assay [8]; 91.9% in assay [9]; 114% in assay [10]; 103% in assay [11]; 105% in assay [12].

`C#Cc1cccc(Nc2ncnc3cc(OC)c(OCCCCCCC(=O)NO)cc23)c1` [CUDC-101] (1000 nM): the normalised viability in [1] was 50%; in assay [2], 60.9%; in assay [3] it was 97.7%; in assay [4], 47%; in [5], 19.1%; in [6], 24.9%.

In the case of `C#Cc1cccc(Nc2ncnc3cc(OC)c(OCCCCCCC(=O)NO)cc23)c1` [CUDC-101] (10000 nM), the normalised viability in assay [7] worked out at 19.3%; in assay [8] it was 1.42%; in [9] it was 18.1%; in assay [10], 0.77%; in assay [11] it was 0.71%; in assay [12], 1.33%.

For `COc1cccc2c1C(=O)c1c(O)c3c(c(O)c1C2=O)C[C@@](O)(C(C)=O)C[C@@H]3O[C@H]1C[C@H](N)[C@H](O)[C@H](C)O1` [Daunorubicin] (100 nM), the normalised viability was found to be 94.9% in assay [1]; 41.7% in assay [2]; 38% in [3]; 30.8% in [4]; 94.8% in assay [5]; 77.2% in [6].

For the molecule `COc1cccc2c1C(=O)c1c(O)c3c(c(O)c1C2=O)C[C@@](O)(C(C)=O)C[C@@H]3O[C@H]1C[C@H](N)[C@H](O)[C@H](C)O1` [Daunorubicin] (1000 nM), the normalised viability is 16% in assay [7]; -1.24% in [8]; 1.88% in [9]; -0.25% in [10]; 11.6% in assay [11]; 12.2% in assay [12].

Turning to `CN1CCN(c2ccc3nc(-c4c(N)c5c(F)cccc5[nH]c4=O)[nH]c3c2)CC1` [Dovitinib] (1000 nM), the normalised viability was 69.7% in [1]; 94.7% in assay [2]; 116% in assay [3]; 90.7% in assay [4]; 91.4% in assay [5]; 78.3% in [6].

Consider `CN1CCN(c2ccc3nc(-c4c(N)c5c(F)cccc5[nH]c4=O)[nH]c3c2)CC1` [Dovitinib] (10000 nM), for which the normalised viability in assay [7] came to 96.4%; in [8], 96.7%; in assay [9] it was 108%; in [10], 88.5%; in assay [11], 79%; in assay [12], 87.1%.

As for `O=c1[nH]c(=O)n([C@H]2C[C@H](O)[C@@H](CO)O2)cc1F` [Floxuridine] (1000 nM), the normalised viability in assay [1] came to 86.5%; in assay [2], 91.6%; in assay [3], 31.9%; in assay [4], 50.6%; in [5], 81.9%; in assay [6], 53.1%.

For `O=c1[nH]c(=O)n([C@H]2C[C@H](O)[C@@H](CO)O2)cc1F` [Floxuridine] (10000 nM), the normalised viability in assay [7] amounted to 93.9%; in assay [8], 56.2%; in assay [9], 15.5%; in assay [10] it was 31.9%; in assay [11], 32.2%; in assay [12] it was 39.3%.

For the molecule `O=c1[nH]cc(F)c(=O)[nH]1` [Fluorouracil] (1000 nM), the normalised viability came to 96.1% in assay [1]; 105% in [2]; 102% in assay [3]; 75.5% in [4]; 91.7% in [5]; 74.2% in assay [6].

On to `O=c1[nH]cc(F)c(=O)[nH]1` [Fluorouracil] (10000 nM), for which the normalised viability is 74.4% in [7]; 75.2% in assay [8]; 47.9% in [9]; 55.4% in [10]; 72.9% in assay [11]; 58.3% in assay [12].
